Measurements reported in ChEMBL document CHEMBL6071142, “Isoalantolactone/hydroxamic acid hybrids as potent dual STAT3/HDAC inhibitors and self-assembled nanoparticles for cancer therapy” (Eur J Med Chem, 2024).
Activity calls are given as the source filed them. The calls are words filed in the database; no cut-off is given here.

How the values were obtained:
Histone deacetylase 2 = Histone deacetylase 2 (Homo sapiens, UniProt Q92769); experiment: Inhibition of recombinant human HDAC2 using Boc-Lys (acetyl)-AMC as substrate preincubated with compound for 1 hr followed by substrate addition and measured after 30 mins by microplate reader assay
[1] = molecular target: T1, Protein deacetylase HDAC6 (Homo sapiens, UniProt Q9UBN7); experiment: Inhibition of recombinant human HDAC6 using Boc-Lys (acetyl)-AMC as substrate preincubated with compound for 1 hr followed by substrate addition and measured after 30 mins by microplate reader assay
T1 sequence (Q9UBN7 whole entry): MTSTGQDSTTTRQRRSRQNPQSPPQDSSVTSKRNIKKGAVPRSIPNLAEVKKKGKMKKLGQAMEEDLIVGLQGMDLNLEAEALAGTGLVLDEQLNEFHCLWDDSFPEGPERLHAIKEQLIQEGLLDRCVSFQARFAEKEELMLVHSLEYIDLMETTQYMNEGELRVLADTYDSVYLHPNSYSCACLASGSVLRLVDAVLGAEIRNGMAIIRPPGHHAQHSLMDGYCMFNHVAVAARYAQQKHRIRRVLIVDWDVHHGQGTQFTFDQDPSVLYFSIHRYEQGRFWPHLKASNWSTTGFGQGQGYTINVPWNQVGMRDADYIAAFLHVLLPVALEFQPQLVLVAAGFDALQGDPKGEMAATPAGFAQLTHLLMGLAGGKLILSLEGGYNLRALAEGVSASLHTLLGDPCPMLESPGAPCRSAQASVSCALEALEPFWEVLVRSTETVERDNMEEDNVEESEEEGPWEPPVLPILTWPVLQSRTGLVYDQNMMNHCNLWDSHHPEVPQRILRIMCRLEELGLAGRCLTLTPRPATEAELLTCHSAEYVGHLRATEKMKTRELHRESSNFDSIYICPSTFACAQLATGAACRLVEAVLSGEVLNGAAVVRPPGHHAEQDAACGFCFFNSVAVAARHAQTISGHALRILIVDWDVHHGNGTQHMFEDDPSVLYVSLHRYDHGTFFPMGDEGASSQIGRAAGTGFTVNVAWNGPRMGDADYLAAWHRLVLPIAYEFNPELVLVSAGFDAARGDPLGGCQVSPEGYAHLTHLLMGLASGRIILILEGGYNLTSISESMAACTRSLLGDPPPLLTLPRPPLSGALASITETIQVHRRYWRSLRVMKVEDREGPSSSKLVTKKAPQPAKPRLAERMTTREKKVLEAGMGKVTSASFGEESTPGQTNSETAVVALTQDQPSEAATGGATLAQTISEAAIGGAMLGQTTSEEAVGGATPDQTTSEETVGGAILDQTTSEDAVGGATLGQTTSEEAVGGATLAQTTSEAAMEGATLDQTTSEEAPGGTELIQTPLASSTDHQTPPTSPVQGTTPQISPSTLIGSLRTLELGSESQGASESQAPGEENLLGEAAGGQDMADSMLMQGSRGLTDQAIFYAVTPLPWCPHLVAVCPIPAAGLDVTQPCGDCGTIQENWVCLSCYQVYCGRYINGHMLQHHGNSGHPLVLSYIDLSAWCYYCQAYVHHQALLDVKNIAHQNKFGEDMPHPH

[2] = molecular target: Signal transducer and activator of transcription 3 (Homo sapiens, UniProt P40763); experiment: Binding affinity to STAT3 (unknown origin) assessed as dissociation constant by SPR assay
HepG2 [3] = experiment: Antiproliferative activity against human HepG2 cells assessed as inhibition of cell proliferation incubated for 72 hrs by CCK-8 assay; assay type: functional, cell-based; conditions: HepG2, 72 h
[4] = molecular target: Protein deacetylase HDAC6 (Homo sapiens) (UniProt Q9UBN7); experiment: Inhibition of HDAC6 in human A549 cells assessed as increase in Ac-tubulin at 0.5 uM incubated for 12 hrs by Western blot analysis; assay type: cell-based
A549 [5] = experiment: Induction of autophagy in human A549 cells transfected with mRFP-GFP-LC3 assessed as increase in LC3-II protein level at 0.5 uM incubated for 12 hrs by Western blot analysis; assay type: functional, cell-based
A549 [6] = experiment: Induction of autophagy in human A549 cells transfected with mRFP-GFP-LC3 at 0.5 uM incubated for 24 hrs by confocal microscopic analysis; assay type: functional, cell-based
A549 [7] = experiment: Induction of apoptosis in human A549 cells assessed as late apoptotic cells at 2 uM incubated for 24 hrs by Annexin V-FITC/PI staining based flow cytometric analysis (reference value: 2.18%); assay type: functional
A549 [8] = experiment: Induction of apoptosis in human A549 cells assessed as viable cells at 4 uM incubated for 24 hrs by Annexin V-FITC/PI staining based flow cytometric analysis (reference value: 95.08%); assay type: functional; conditions: read-out: Activity
A549 [9] = experiment: Induction of apoptosis in human A549 cells at 2 uM incubated for 24 hrs by Annexin V-FITC/PI staining based flow cytometric analysis; assay type: functional
A549 [10] = experiment: Induction of apoptosis in human A549 cells at 4 uM incubated for 24 hrs by Annexin V-FITC/PI staining based flow cytometric analysis; assay type: functional
[11] = Toxicity in female BALB/c nu/nu mouse xenografted with human A549 cells assessed as effect on body weight at 2.5 mg/kg, iv and measured regularly; assay type: organism-based; conditions: in vivo
[12] = Toxicity in female BALB/c nu/nu mouse xenografted with human A549 cells assessed as effect on spleen at 5 mg/kg, iv by H and E staining based analysis; assay type: organism-based; conditions: in vivo
A549 [13] = experiment: Anticancer activity against human A549 cells assessed as cell viability incubated for 72 hrs using self assembled nanoparticle as source of compound by CCK-8 assay; assay type: functional, cell-based; conditions: A549, 72 h
HCT-116 = experiment: Anticancer activity against human HCT-116 cells assessed as cell viability incubated for 72 hrs using self assembled nanoparticle as source of compound by CCK-8 assay; assay type: functional, cell-based; conditions: HCT-116, 72 h
HepG2 [14] = experiment: Anticancer activity against human HepG2 cells assessed as cell viability incubated for 72 hrs using self assembled nanoparticle as source of compound by CCK-8 assay; assay type: functional, cell-based; conditions: HepG2, 72 h
[15] = Drug accumulation in nude mouse xenografted with A549 cells assessed as increase in fluorescence at 5 mg/kg, iv using chlorine e6 loaded self-assembled nanoparticle as source of compound incubated for 24 hrs by ex-vivo fluorescence based analysis; assay type: ADME, organism-based
[16] = Biodistribution in heart of nude mouse xenografted with A549 cells at 5 mg/kg, iv using chlorine e6 loaded self-assembled nanoparticle as source of compound incubated for 24 hrs by ex-vivo fluorescence based LC-MS/MS analysis; assay type: ADME, organism-based
[17] = Biodistribution in kidney of nude mouse xenografted with A549 cells at 5 mg/kg, iv using chlorine e6 loaded self-assembled nanoparticle as source of compound incubated for 24 hrs by ex-vivo fluorescence based LC-MS/MS analysis; assay type: ADME, organism-based
A549 [18] = experiment: Induction of autophagy in human A549 cells assessed as upregulation of LC3-II at 4 uM incubated for 12 hrs by Western blot analysis
[19] = Drug accumulation in tumor of nude mouse xenografted with A549 cells assessed as increase in fluorescence at 5 mg/kg, iv using chlorine e6 loaded self assembled nanoparticle as source of compound by in vivo fluorescence imaging

Chain of Histone deacetylase 2 (Q92769 whole entry): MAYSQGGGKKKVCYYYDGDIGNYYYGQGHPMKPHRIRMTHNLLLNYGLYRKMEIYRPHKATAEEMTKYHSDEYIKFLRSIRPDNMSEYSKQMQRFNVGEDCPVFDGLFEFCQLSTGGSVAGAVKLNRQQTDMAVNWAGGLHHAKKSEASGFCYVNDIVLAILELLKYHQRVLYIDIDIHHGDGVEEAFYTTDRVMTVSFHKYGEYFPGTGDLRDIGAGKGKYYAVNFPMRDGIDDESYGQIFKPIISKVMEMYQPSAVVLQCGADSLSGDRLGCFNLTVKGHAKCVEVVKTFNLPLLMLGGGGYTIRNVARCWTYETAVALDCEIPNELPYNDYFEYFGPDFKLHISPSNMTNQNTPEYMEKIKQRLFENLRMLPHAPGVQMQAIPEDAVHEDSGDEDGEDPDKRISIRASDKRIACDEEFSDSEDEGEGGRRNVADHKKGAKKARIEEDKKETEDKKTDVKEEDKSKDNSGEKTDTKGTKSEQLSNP
Chain of Signal transducer and activator of transcription 3 (P40763 whole entry): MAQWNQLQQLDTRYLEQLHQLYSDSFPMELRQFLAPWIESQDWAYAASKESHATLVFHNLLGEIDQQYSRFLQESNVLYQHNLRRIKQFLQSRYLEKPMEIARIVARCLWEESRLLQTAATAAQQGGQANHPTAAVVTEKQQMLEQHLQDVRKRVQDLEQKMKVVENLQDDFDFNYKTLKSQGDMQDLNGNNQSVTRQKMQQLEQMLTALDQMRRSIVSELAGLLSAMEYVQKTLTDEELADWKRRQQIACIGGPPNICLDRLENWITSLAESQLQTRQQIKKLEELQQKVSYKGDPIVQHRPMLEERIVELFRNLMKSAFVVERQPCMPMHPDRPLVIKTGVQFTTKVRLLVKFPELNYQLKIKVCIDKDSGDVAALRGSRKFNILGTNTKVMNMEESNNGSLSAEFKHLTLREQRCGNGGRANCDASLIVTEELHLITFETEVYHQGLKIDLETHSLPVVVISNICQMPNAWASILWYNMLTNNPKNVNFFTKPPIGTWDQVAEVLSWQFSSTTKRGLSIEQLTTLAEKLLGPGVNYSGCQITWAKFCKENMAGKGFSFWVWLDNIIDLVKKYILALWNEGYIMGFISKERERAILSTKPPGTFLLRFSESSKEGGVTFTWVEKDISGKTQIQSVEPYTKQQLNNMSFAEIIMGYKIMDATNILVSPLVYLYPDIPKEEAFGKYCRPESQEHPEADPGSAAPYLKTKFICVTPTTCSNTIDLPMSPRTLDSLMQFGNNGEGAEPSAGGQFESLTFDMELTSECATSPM

- IC50 (Histone deacetylase 2): 0.0526 µM
- IC50 [1]: 0.00769 µM
- Kd [2]: 2.52 µM
- IC50 (HepG2 [3]): 0.26 µM
- inhibition [4]: Active
- IC50 (A549 [13]): 0.069 µM
- IC50 (HCT-116): 0.023 µM
- IC50 (HepG2 [14]): 0.17 µM
- Drug uptake [15]: Active
- Drug uptake [16]: Active
- Drug uptake [17]: Active
- Drug uptake [19]: Active
SMILES: C=C1C(=O)O[C@@H]2C[C@@]3(C)CC[C@@H](OC(=O)[C@H](C)NC(=O)c4ccc(/C=C/C(=O)NO)cc4)C(=C)[C@@H]3C[C@H]12
- Activity (A549 [5]): Active
- Activity (A549 [6]): Active
- Activity (A549 [7]): 11.86%
- viability at 4 µM (A549 [8]): 56.2%
- Activity (A549 [9]): 15%
- Activity (A549 [10]): 40%
- Activity [11]: Non-Toxic
- Activity [12]: Non-Toxic
- Activity (A549 [18]): Active
